Measured values: patent US20190240296A1, “TREATMENT OF DISEASES MEDIATED BY VASCULAR HYPERPERMEABILITY” (AMPIO PHARMACEUTICALS, INC., priority 2016, published 2019)

Test system: acetylated α-tubulin in HREC
Assay: Immunofluorescence staining for acetylated α-tubulin in HREC
Assay type: cell-based, human
Conditions: 3 hours
Method: HREC were grown on glass bottom 24-well tissue culture plates (Cellvis, Mountain View, Calif.) coated with 2% gelatin in EGM-2. The medium was then exchanged with a combination of 500 μL saline, 2× working dilutions of compounds to be tested prepared in saline, or LMWFHSA together with 500 μl EGM-2 and incubated for the indicated times. Following treatment, the cells were fixed using 10% neutral buffered formalin for 10 minutes and permeabilized with 0.1% Triton X-100 in PBS for 5 minutes. 4% goat serum (ThermoFisher Scientific) prepared in PBS was used to block the cells for 1 hour then the cells were exposed to anti-acetylated α-tubulin clone 6-11B-1 antibody (1:1000; Santa Cruz Biotechnology, Santa Cruz, Calif.) in blocking solution overnight at 4° C. Alexa fluor 488 conjugated anti-mouse IgG (1:1000; Invitrogen, Carlsbad, Calif.) was then added for 1 hour followed by DAPI counter staining (300 nM in PBS; ThermoFisher Scientific) for 5 minutes. Randomly selected frames were photographed on an inverted microscope (Zyla sCMOS camera; Andor, South Windsor, Conn. and eclipse Ti; Nikon, Melville, N.Y.) and fluorescent intensity measured using ImageJ software (http://imagej.nih.gov/ij) (Schneider C A, et al. NIH Image to ImageJ: 25 years of image analysis. Nature methods 2012; 9:671-675). For normalization, the number of DAPI staining nuclei was determined for each frame and data presented as median FU/DAPI objects.

| Compound | inhibition at 10 µM (Homo sapiens, 10 μM LY294002 with LMWFHSA, four experiments in triplicate, 95% CI 29-19, read-out: reduction of LMWFHSA-induced α-tubulin acetylation (percent inhibition)) [%] | increase of α-tubulin acetylation versus saline-DMSO controls (10 μM SB203580 with LMWFHSA, 95% CI 63-51) [%] | increase of α-tubulin acetylation versus LMWF5A-DMSO treated cells (10 μM SB203580 with LMWFHSA, 95% CI 236-208) [%] |
| --- | --- | --- | --- |
| O=c1cc(N2CCOCC2)oc2c(-c3ccccc3)cccc12 [LY294002] | 24 | – | – |
| C[S+]([O-])c1ccc(-c2nc(-c3ccncc3)c(-c3ccc(F)cc3)[nH]2)cc1 (stereo not drawn) [SB203580] | – | 57 | 222 |
